Data as given in patent publication US11319328B2 (priority 2017, dated 2022).

How the values were obtained:
Assay in all cases: cells
Type in all cases: cell-based
Hepatoma HepG2 = details: cultured 48 h, MTT
Description: (§1) A cell strain: Hepatoma HepG2, cervical cancer Hela, lung cancer A549, breast cancer MCF7 cell line and human normal liver cell HL7702 were purchased from Wuhan Boster Biological Technology Co., Ltd.;
(§2) HepG2, Hela, A549, MCF 7 cells in logarithmic growth phase and human normal hepatocytes HL7702 were centrifuged at 1500 rpm for 5 min, and the supernatant was discarded; the cells were digested with a suitable amount of trypsin, and then suspended with a suitable amount of culture medium (HepG2, Hela and HL7702 cells were suspended with penicillin-streptomycin RPMI1640 culture medium containing 10% calf serum, A549 and MCF 7 cells with penicillin-streptomycin high glucose DMEM culture medium containing 10% calf serum, to adjust the cell concentration to 1.5×10^4 cells/well, the cells were seeded in 96-well plates, and the following experimental groups were set:
(§3) 0.10 mL of the cell suspension was added to each well, and incubated at 37° C., 5% CO2 and saturated humidity for 12 h, and the culture medium was discarded when the cell density was nearly 70%. […] 100 μl of 5 mg/ml MTT was added per well, standing for 4 h at 37° C. 100 μl of DMSO was added to each well, followed by shaking on a shaker for 10 min at 37° C., the absorbance (OD) was measured at 492 nm, and the MTT ratio was calculated as the OD value of drug group/OD value of negative control group.

cervical cancer Hela = details: cultured 48 h, MTT
Description: as §1, §2, §3

[1] = test system: breast cancer MCF7 cell line; details: cultured 48 h, MTT
Description: as §1, §2, §3

lung cancer A549 = details: cultured 48 h, MTT
Description: as §1, §2, §3

[2] = test system: human normal liver cell HL7702; details: human normal hepatocytes HL7702, cultured 48 h, MTT
Description: as §1, §2, §3

Row | Structure (SMILES) | IC50 (Hepatoma HepG2) | IC50 (cervical cancer Hela) | IC50 [1] | IC50 (lung cancer A549) | IC50 [2] | IC50 (Hepatoma HepG2; Homo sapiens) | IC50 (cervical cancer Hela; Homo sapiens) | IC50 ([1]; Homo sapiens) | IC50 (lung cancer A549; Homo sapiens) | IC50 ([2]; L02)
1 | COc1cc([C@@H]2c3cc4c(cc3[C@@H](Nc3nc(N)nc5ccccc35)[C@@H]3COC(=O)[C@H]23)OCO4)cc(OC)c1O [Compound 25, 4β-NH-(2,4-quinazolinediamine)-4′-demethylepipodophyllotoxin] | 9.8 ± 1.7 µM | 3.6 ± 0.9 µM | 6.1 ± 1.3 µM | 3.6 ± 0.8 µM | 16.9 ± 2.5 µM |  |  |  |  | 
2 | COc1cc(C2c3cc4c(cc3C(Nc3ccc5ncccc5c3)C3COC(=O)C23)OCO4)cc(OC)c1O (stereo not drawn) [Compound 26, 4β-NH-(6-aminoquinoline)-4′-demethylepipodophyllotoxin] | 10 ± 1.9 µM | 5.7 ± 1.1 µM | 4.3 ± 0.8 µM | 2 ± 0.5 µM | 22.8 ± 4.2 µM |  |  |  |  | 
3 | COc1cc(C2c3cc4c(cc3C(Nc3cccc5ncccc35)C3COC(=O)C23)OCO4)cc(OC)c1O (stereo not drawn) [Compound 27, 4β-NH-(5-aminoquinoline)-4′-demethylepipodophyllotoxin] | 1.6 ± 0.8 µM | 2.1 ± 1 µM | 2.4 ± 0.9 µM | 1.3 ± 0.2 µM | 15.6 ± 1.8 µM |  |  |  |  | 
4 | COc1cc(C2c3cc4c(cc3C(Nc3cccc5cnccc35)C3COC(=O)C23)OCO4)cc(OC)c1O (stereo not drawn) [Compound 28, 4β-NH-(5-aminoisoquinoline)-4′-demethylepipodophyllotoxin] | 2.8 ± 1.6 µM | 1.9 ± 0.9 µM | 2.5 ± 0.9 µM | 1.4 ± 0.6 µM | 19.8 ± 2.1 µM |  |  |  |  | 
5 | COc1cc([C@@H]2c3cc4c(cc3[C@@H](Nc3cccc5cccnc35)[C@@H]3COC(=O)[C@H]23)OCO4)cc(OC)c1O [Compound 29, 4β-NH-(8-aminoquinoline)-4′-demethylepipodophyllotoxin] | 4.5 ± 1.5 µM | 3.8 ± 0.2 µM | 1.5 ± 0.4 µM | 2.8 ± 0.4 µM | 73 ± 7.8 µM |  |  |  |  | 
6 | COc1cc(C2c3cc4c(cc3C(Nc3cccc5ccc(C)nc35)C3COC(=O)C23)OCO4)cc(OC)c1O (stereo not drawn) [Compound 30, 4β-NH-(8-aminoquinaldine)-4′-demethylepipodophyllotoxin] | 5 ± 1.1 µM | 4.2 ± 0.8 µM | 3 ± 0.5 µM | 0.5 ± 0.05 µM | > 100 µM |  |  |  |  | 
7 | COc1cc(C2c3cc4c(cc3C(Nc3ccc5[nH]ncc5c3)C3COC(=O)C23)OCO4)cc(OC)c1O (stereo not drawn) [Compound 31, 4β-NH-(5-indazolamine)-4′-demethylepipodophyllotoxin] | 6.8 ± 1.5 µM | 4.3 ± 0.9 µM | 3.5 ± 0.3 µM | 1.7 ± 0.3 µM | > 100 µM |  |  |  |  | 
8 | COc1cc([C@@H]2c3cc4c(cc3[C@@H](Nc3ccc5[nH]ccc5c3)[C@@H]3COC(=O)[C@H]23)OCO4)cc(OC)c1O [Compound 34, 4β-NH-(5-aminoindole)-4′-demethylepipodophyllotoxin] | > 100 µM | 21.7 ± 5.3 µM | 76.3 ± 5.7 µM | > 100 µM | > 100 µM |  |  |  |  | 
9 | COc1cc(C2c3cc4c(cc3C(Nc3ccc5cc[nH]c5c3)C3COC(=O)C23)OCO4)cc(OC)c1O (stereo not drawn) [Compound 35, 4β-NH-(6-aminoindole)-4′-demethylepipodophyllotoxin] | 19.5 ± 2.4 µM | 21.1 ± 2.9 µM | 34.5 ± 3.8 µM | 6.5 ± 1 µM | > 100 µM |  |  |  |  | 
10 | COc1cc(C2c3cc4c(cc3C(Nc3cccc5cc[nH]c35)C3COC(=O)C23)OCO4)cc(OC)c1O (stereo not drawn) [Compound 36, 4β-NH-(7-aminoindole)-4′-demethylepipodophyllotoxin] | 15.4 ± 2.2 µM | 15.4 ± 6.1 µM | 8 ± 5.5 µM | 19.5 ± 1.5 µM | 31.5 ± 3.2 µM |  |  |  |  | 
11 | COc1cc(C2c3cc4c(cc3C(Nc3ccccc3-c3nc5ccccc5[nH]3)C3COC(=O)C23)OCO4)cc(OC)c1O (stereo not drawn) [Compound 37, 4β-NH-(2-(2-aminophenyl)benzimidazole)-4′-demethylepipodophyllotoxin] | > 100 µM | 48.6 ± 6.2 µM | > 100 µM | > 100 µM | > 100 µM |  |  |  |  | 
12 | COc1cc([C@@H]2c3cc4c(cc3[C@@H](O[C@@H]3O[C@@H]5CO[C@@H](C)O[C@H]5[C@H](O)[C@H]3O)[C@H]3COC(=O)[C@H]23)OCO4)cc(OC)c1O [Etoposide, etoposide, reference compound] |  |  |  |  |  | 20 ± 1.3 µM | 21.4 ± 1.6 µM | 53.8 ± 5.6 µM | 22.5 ± 1.8 µM | 24.6 ± 3.8 µM
